Assay results published in PubChem BioAssay (NCI).
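Where inhibition never reached the appropriate level, the endpoint shown equals the highest concentration tested. Otherwise, values were interpolated linearly from a five-concentration, 48-hour dose response in 96-well plates. TGI: total growth inhibition.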

Key:
Assay in all cases: DTP human tumour cell line panel, 48 h
786-0 renal = system: 786-0 renal
A498 renal = system: A498 renal
A549 NSCLC = system: A549 NSCLC
ACHN renal = system: ACHN renal
CAKI-1 renal = system: CAKI-1 renal
CCRF-CEM leukemia = system: CCRF-CEM leukemia
DLD-1 colon = system: DLD-1 colon
DMS 114 small cell lung = system: DMS 114 small cell lung
DMS 273 small cell lung = system: DMS 273 small cell lung
EKVX NSCLC = system: EKVX NSCLC
HCC-2998 colon = system: HCC-2998 colon
HCT-116 colon = system: HCT-116 colon
HCT-15 colon = system: HCT-15 colon
HL-60(TB) leukemia = system: HL-60(TB) leukemia
HOP-92 NSCLC = system: HOP-92 NSCLC
HT29 colon = system: HT29 colon
IGROV1 ovarian = system: IGROV1 ovarian
K-562 leukemia = system: K-562 leukemia
KM20L2 colon = system: KM20L2 colon
LOX IMVI melanoma = system: LOX IMVI melanoma
LXFL 529 NSCLC = system: LXFL 529 NSCLC
M14 melanoma = system: M14 melanoma
M19-MEL melanoma = system: M19-MEL melanoma
MALME-3M melanoma = system: MALME-3M melanoma
MOLT-4 leukemia = system: MOLT-4 leukemia
NCI-H226 lung = system: NCI-H226 lung
NCI-H23 lung = system: NCI-H23 lung
NCI-H460 lung = system: NCI-H460 lung
NCI-H522 lung = system: NCI-H522 lung
OVCAR-3 ovarian = system: OVCAR-3 ovarian
OVCAR-4 ovarian = system: OVCAR-4 ovarian
OVCAR-5 ovarian = system: OVCAR-5 ovarian
OVCAR-8 ovarian = system: OVCAR-8 ovarian
RPMI-8226 leukemia = system: RPMI-8226 leukemia
RXF 393 renal = system: RXF 393 renal
RXF-631 renal = system: RXF-631 renal
SF-268 CNS = system: SF-268 CNS
SF-295 CNS = system: SF-295 CNS
SF-539 CNS = system: SF-539 CNS
SK-MEL-2 melanoma = system: SK-MEL-2 melanoma
SK-MEL-28 melanoma = system: SK-MEL-28 melanoma
SK-MEL-5 melanoma = system: SK-MEL-5 melanoma
SN12C renal = system: SN12C renal
SNB-19 CNS = system: SNB-19 CNS
SNB-75 CNS = system: SNB-75 CNS
SNB-78 CNS = system: SNB-78 CNS
SR leukemia = system: SR leukemia
SW-620 colon = system: SW-620 colon
TK-10 renal = system: TK-10 renal
U251 CNS = system: U251 CNS
UACC-257 melanoma = system: UACC-257 melanoma
UACC-62 melanoma = system: UACC-62 melanoma
UO-31 renal = system: UO-31 renal
XF 498 CNS = system: XF 498 CNS
COLO 205 colon = system: COLO 205 colon
HOP-62 NSCLC = system: HOP-62 NSCLC
KM12 colon = system: KM12 colon
SK-OV-3 ovarian = system: SK-OV-3 ovarian

COc1ccc(/C=C/c2nc(=S)[nH][nH]2)cc1
TGI (786-0 renal): > 100 µM
TGI (A498 renal): > 100 µM
TGI (A549 NSCLC): > 100 µM
TGI (ACHN renal): > 100 µM
TGI (CAKI-1 renal): > 100 µM
TGI (CCRF-CEM leukemia): > 100 µM
TGI (DLD-1 colon): > 100 µM
TGI (DMS 114 small cell lung): > 100 µM
TGI (DMS 273 small cell lung): > 100 µM
TGI (EKVX NSCLC): > 100 µM
TGI (HCC-2998 colon): > 100 µM
TGI (HCT-116 colon): > 100 µM
TGI (HCT-15 colon): > 100 µM
TGI (HL-60(TB) leukemia): > 100 µM
TGI (HOP-92 NSCLC): > 100 µM
TGI (HT29 colon): > 100 µM
TGI (IGROV1 ovarian): > 100 µM
TGI (K-562 leukemia): > 100 µM
TGI (KM20L2 colon): > 100 µM
TGI (LOX IMVI melanoma): > 100 µM
TGI (LXFL 529 NSCLC): > 100 µM
TGI (M14 melanoma): > 100 µM
TGI (M19-MEL melanoma): > 100 µM
TGI (MALME-3M melanoma): > 100 µM
TGI (MOLT-4 leukemia): > 100 µM
TGI (NCI-H226 lung): > 100 µM
TGI (NCI-H23 lung): > 100 µM
TGI (NCI-H460 lung): > 100 µM
TGI (NCI-H522 lung): > 100 µM
TGI (OVCAR-3 ovarian): > 100 µM
TGI (OVCAR-4 ovarian): > 100 µM
TGI (OVCAR-5 ovarian): > 100 µM
TGI (OVCAR-8 ovarian): > 100 µM
TGI (RPMI-8226 leukemia): > 100 µM
TGI (RXF 393 renal): > 100 µM
TGI (RXF-631 renal): > 100 µM
TGI (SF-268 CNS): > 100 µM
TGI (SF-295 CNS): > 100 µM
TGI (SF-539 CNS): > 100 µM
TGI (SK-MEL-2 melanoma): > 100 µM
TGI (SK-MEL-28 melanoma): > 100 µM
TGI (SK-MEL-5 melanoma): > 100 µM
TGI (SN12C renal): > 100 µM
TGI (SNB-19 CNS): > 100 µM
TGI (SNB-75 CNS): > 100 µM
TGI (SNB-78 CNS): > 100 µM
TGI (SR leukemia): > 100 µM
TGI (SW-620 colon): > 100 µM
TGI (TK-10 renal): > 100 µM
TGI (U251 CNS): > 100 µM
TGI (UACC-257 melanoma): > 100 µM
TGI (UACC-62 melanoma): > 100 µM
TGI (UO-31 renal): > 100 µM
TGI (XF 498 CNS): > 100 µM

COC(=O)C1=C(c2cc(OC)c(OC)c(OC)c2)OC(c2cc(OC)c(OC)c(OC)c2)C1COC(C)=O (stereo unspecified)
TGI (786-0 renal): > 100 µM
TGI (A498 renal): > 100 µM
TGI (A549 NSCLC): > 100 µM
TGI (ACHN renal): > 100 µM
TGI (CAKI-1 renal): > 100 µM
TGI (CCRF-CEM leukemia): > 100 µM
TGI (COLO 205 colon): 33.4 µM
TGI (DLD-1 colon): > 100 µM
TGI (DMS 114 small cell lung): > 100 µM
TGI (DMS 273 small cell lung): > 100 µM
TGI (EKVX NSCLC): > 100 µM
TGI (HCC-2998 colon): > 100 µM
TGI (HCT-116 colon): > 100 µM
TGI (HCT-15 colon): > 100 µM
TGI (HL-60(TB) leukemia): 30.5 µM
TGI (HOP-62 NSCLC): > 100 µM
TGI (HOP-92 NSCLC): > 100 µM
TGI (HT29 colon): > 100 µM
TGI (IGROV1 ovarian): > 100 µM
TGI (K-562 leukemia): > 100 µM
TGI (KM12 colon): > 100 µM
TGI (KM20L2 colon): > 100 µM
TGI (LOX IMVI melanoma): 57 µM
TGI (LXFL 529 NSCLC): > 100 µM
TGI (M14 melanoma): > 100 µM
TGI (M19-MEL melanoma): > 100 µM
TGI (MALME-3M melanoma): > 100 µM
TGI (MOLT-4 leukemia): 58.7 µM
TGI (NCI-H226 lung): > 100 µM
TGI (NCI-H23 lung): > 100 µM
TGI (NCI-H460 lung): > 100 µM
TGI (NCI-H522 lung): > 100 µM
TGI (OVCAR-3 ovarian): > 100 µM
TGI (OVCAR-4 ovarian): > 100 µM
TGI (OVCAR-5 ovarian): > 100 µM
TGI (OVCAR-8 ovarian): > 100 µM
TGI (RPMI-8226 leukemia): > 100 µM
TGI (RXF 393 renal): > 100 µM
TGI (RXF-631 renal): 45.1 µM
TGI (SF-268 CNS): > 100 µM
TGI (SF-295 CNS): > 100 µM
TGI (SF-539 CNS): > 100 µM
TGI (SK-MEL-28 melanoma): > 100 µM
TGI (SK-MEL-5 melanoma): 97.8 µM
TGI (SK-OV-3 ovarian): > 100 µM
TGI (SN12C renal): > 100 µM
TGI (SNB-19 CNS): > 100 µM
TGI (SNB-75 CNS): > 100 µM
TGI (SNB-78 CNS): > 100 µM
TGI (SR leukemia): 52.2 µM
TGI (SW-620 colon): > 100 µM
TGI (TK-10 renal): > 100 µM
TGI (U251 CNS): > 100 µM
TGI (UACC-257 melanoma): > 100 µM
TGI (UACC-62 melanoma): > 100 µM
TGI (UO-31 renal): > 100 µM
TGI (XF 498 CNS): > 100 µM
